{"source": "patent US20050137182A1", "about": "“Novel crystalline form of cefdinir” (priority 2003, published 2005)", "format_in_all_cases": "physicochemical", "key": {"[1]": {"experiment": "Stress stability study, HPLC purity and assay before and after", "settings": "60° C.±2° C. for 15 days", "experimental": "Stress stability studies of cefdinir crystal B were performed by keeping samples of cefdinir crystal B under the conditions of 60° C.±2° C. for 15 days, and the purity and assay of the samples were determined before and after the stress test by high performance liquid chromatography. […] Table 3 summaries the results of the stress test studies."}, "[2]": {"experiment": "Real time storage stability, 25° C. ± 2° C./60% RH ± 5% RH", "settings": "for Assay (% w/w, by HPLC OAB), % change / Total RS (% area normalization, by HPLC) / Assay (% w/w, by HPLC OAB): real time 25° C. ± 2° C./60% RH ± 5% RH"}, "[3]": {"experiment": "Accelerated storage stability, 40° C. ± 2° C./75% RH ± 5% RH", "settings": "for Assay (% w/w, by HPLC OAB), % change / Total RS (% area normalization, by HPLC) / Assay (% w/w, by HPLC OAB): accelerated 40° C. ± 2° C./75% RH ± 5% RH"}, "[4]": {"settings": "3 Months, listed as Crystal B Sample 1"}, "[5]": {"settings": "3 Months, listed as Crystal B Sample 2"}, "[6]": {"settings": "Initial, listed as Crystal B Sample 1"}, "[7]": {"settings": "Initial, listed as Crystal B Sample 2"}, "[8]": {"settings": "1 Month, listed as Crystal B Sample 1"}, "[9]": {"settings": "2 Months, listed as Crystal B Sample 1"}, "[10]": {"settings": "2 Months, listed as Crystal B Sample 2"}}, "note": "Values joined by “and” are separate entries in the source; they are usually repeats but may differ in a detail not shown here. Equal entries are not always repeated. “Also recorded” adds a separate entry of the source."}
{"smiles": "C=CC1=C(C(=O)O)N2C(=O)[C@@H](NC(=O)/C(=N\\O)c3csc(N)n3)[C@H]2SC1", "note": "[Cefdinir Crystal B, 7β-[(Z)-2-(2-amino-4-thiazolyl)-2-hydroxyiminoacetamido]-3-vinyl-3-cephem-4-carboxylic acid]", "values": [{"measurement": "Assay (by HPLC on anhydrous basis, % change)", "setting": "[1]", "value": 0, "unit": "%"}, {"measurement": "Degradation in stress test (in words)", "setting": "[1]", "value": "did not degrade"}, {"measurement": "Purity (by HPLC, % change)", "setting": "[1]", "value": "−0.21% and −0.33%"}, {"measurement": "Assay (% w/w, by HPLC OAB), % change", "setting": "[2]; [4]", "value": 0.0, "unit": "%"}, {"measurement": "Total RS (% area normalization, by HPLC)", "setting": "[2]; [4]", "value": 0.53, "unit": "% area"}, {"measurement": "Assay (% w/w, by HPLC OAB), % change", "setting": "[2]; [5]", "value": 0.0, "unit": "%"}, {"measurement": "Total RS (% area normalization, by HPLC)", "setting": "[2]; [5]", "value": 0.61, "unit": "% area"}, {"measurement": "Assay (% w/w, by HPLC OAB)", "setting": "[2]; [6]", "value": 99.9, "unit": "% w/w"}, {"measurement": "Total RS (% area normalization, by HPLC)", "setting": "[2]; [6]", "value": 0.64, "unit": "% area"}, {"measurement": "Assay (% w/w, by HPLC OAB)", "setting": "[2]; [7]", "value": 99.4, "unit": "% w/w"}, {"measurement": "Total RS (% area normalization, by HPLC)", "setting": "[2]; [7]", "value": 0.59, "unit": "% area"}, {"measurement": "Assay (% w/w, by HPLC OAB), % change", "setting": "[3]; [8]", "value": 0.0, "unit": "%"}, {"measurement": "Total RS (% area normalization, by HPLC)", "setting": "[3]; [8]", "value": 0.72, "unit": "% area"}, {"measurement": "Total RS (% area normalization, by HPLC)", "setting": "[3]; 1 Month, listed as Crystal B Sample 2", "value": 0.70, "unit": "% area"}, {"measurement": "Assay (% w/w, by HPLC OAB), % change", "setting": "[3]; [9]", "value": 0.0, "unit": "%"}, {"measurement": "Total RS (% area normalization, by HPLC)", "setting": "[3]; [9]", "value": 1.10, "unit": "% area"}, {"measurement": "Assay (% w/w, by HPLC OAB), % change", "setting": "[3]; [10]", "value": 0.0, "unit": "%"}, {"measurement": "Total RS (% area normalization, by HPLC)", "setting": "[3]; [10]", "value": 0.92, "unit": "% area"}, {"measurement": "Assay (% w/w, by HPLC OAB), % change", "setting": "[3]; [4]", "value": "−0.1", "unit": "%"}, {"measurement": "Total RS (% area normalization, by HPLC)", "setting": "[3]; [4]", "value": 0.90, "unit": "% area"}, {"measurement": "Assay (% w/w, by HPLC OAB), % change", "setting": "[3]; [5]", "value": "−0.2", "unit": "%"}, {"measurement": "Total RS (% area normalization, by HPLC)", "setting": "[3]; [5]", "value": 1.08, "unit": "% area"}, {"measurement": "Assay (% w/w, by HPLC OAB)", "setting": "[3]; [6]", "value": 99.9, "unit": "% w/w"}, {"measurement": "Total RS (% area normalization, by HPLC)", "setting": "[3]; [6]", "value": 0.64, "unit": "% area"}, {"measurement": "Assay (% w/w, by HPLC OAB)", "setting": "[3]; [7]", "value": 99.4, "unit": "% w/w"}, {"measurement": "Total RS (% area normalization, by HPLC)", "setting": "[3]; [7]", "value": 0.59, "unit": "% area"}, {"measurement": "Stability under accelerated storage conditions compared with the other crystal form (in words)", "setting": "[3]; about 40° C., about 75% RH, up to 3 months", "value": "increased storage stability; also recorded: superior stability"}, {"measurement": "Amount of compound that degrades", "setting": "[3]; over a period of at least 3 months under accelerated storage conditions", "value": "≤ 0.5", "unit": "%"}]}
{"smiles": "C=CC1=C(C(=O)O)N2C(=O)[C@@H](NC(=O)/C(=N\\O)c3csc(N)n3)[C@H]2SC1", "note": "[Cefdinir Crystal A, 7β-[(Z)-2-(2-amino-4-thiazolyl)-2-hydroxyiminoacetamido]-3-vinyl-3-cephem-4-carboxylic acid, reference compound]", "values": [{"measurement": "Assay (% w/w, by HPLC OAB), % change", "setting": "[2]; 3 Months", "value": "−0.2", "unit": "%"}, {"measurement": "Total RS (% area normalization, by HPLC)", "setting": "[2]; 3 Months", "value": 1.18, "unit": "% area"}, {"measurement": "Stability under normal storage conditions compared with the other crystal form (in words)", "setting": "[2]; 25° C.±2° C./60% RH±5% RH, 3 months", "value": "as stable as crystal B"}, {"measurement": "Assay (% w/w, by HPLC OAB)", "setting": "[2]; Initial", "value": 96.3, "unit": "% w/w"}, {"measurement": "Total RS (% area normalization, by HPLC)", "setting": "[2]; Initial", "value": 0.82, "unit": "% area"}, {"measurement": "Assay (% w/w, by HPLC OAB), % change", "setting": "[3]; 1 Month", "value": "−0.5", "unit": "%"}, {"measurement": "Total RS (% area normalization, by HPLC)", "setting": "[3]; 1 Month", "value": 1.98, "unit": "% area"}, {"measurement": "Assay (% w/w, by HPLC OAB), % change", "setting": "[3]; 2 Months", "value": "−1.6", "unit": "%"}, {"measurement": "Total RS (% area normalization, by HPLC)", "setting": "[3]; 2 Months", "value": 2.25, "unit": "% area"}, {"measurement": "Assay (% w/w, by HPLC OAB), % change", "setting": "[3]; 3 Months", "value": "−1.8", "unit": "%"}, {"measurement": "Total RS (% area normalization, by HPLC)", "setting": "[3]; 3 Months", "value": 2.06, "unit": "% area"}, {"measurement": "Assay (% w/w, by HPLC OAB)", "setting": "[3]; Initial", "value": 96.3, "unit": "% w/w"}, {"measurement": "Total RS (% area normalization, by HPLC)", "setting": "[3]; Initial", "value": 0.82, "unit": "% area"}, {"measurement": "Change in the assay", "setting": "[3]; after 3 months under accelerated storage conditions", "value": "about 1.8%"}]}
